In US10059669B2, “2-amino-3,5-difluoro-3,6-dimethyl-6-phenyl-3,4,5,6-tetrahydropyridines as BACE1 inhibitors for treating alzheimer's disease” (H. Lundbeck A/S, priority 2014, dated 2018):

Columns and labels:
Aβ40 = assay: Assessment of Aβ levels in rat brain and plasma following BACE1 inhibition (Aβ40 ELISA); format: in vivo; conditions: 180 minutes, vs vehicle
Protocol: Assessment of Aβ Levels in Rat Brain and Plasma Following BACE1 Inhibition. Animals.
All rat care and experimental procedures were approved by Lundbeck Veterinary Staff, according to Danish legislature. The rats were maintained in a barrier facility with a 12/12-h light/dark cycle and ad libitum food and water access.
Young adult Male Sprague Dawley rats of approximately 250 g weight were purchased from Charles River and received 0-30 mg/kg of vehicle (10% HP betaCD+1M MeSO4, pH 2.5) or test compounds (dissolved in vehicle) only by oral gavage (p.o). The compounds are dosed at a volume of 5 ml/kg. Cohorts of 5-10 animals were established for each treatment condition.
At T=180 minutes after initial dosing the animals were stunned and decapitated with a guillotine. Trunk-blood was sampled in EDTA coated tubes after decapitation of the animal. The blood was centrifuged at 2200G at 4° C. for 15 minutes and the plasma was collected and frozen at −80° C. The blood was aliquoted for Aβ ELISA and DMPK analysis. Immediately following sacrifice, the brain was extracted and split into 2 halves. The right hemibrains were snap frozen on dry ice and stored at −80° C. The left half was dissected; with the front forebrain taken for Aβ ELISA and the remainder used for DMPK analysis. These samples were also snap frozen on dry ice and stored at −80° C. until use for analysis.
The cortex samples were thawed slightly on wet ice before they were homogenized with a small volume dispersing instrument (T10 basic ULTRA-TURRAX®) which was set at speed 5 for approximately 5-7 sec. The tissue was processed in a 10 times volume of the weight, for example 100 mg of tissue was homogenized in 1000 μL of Homogenization buffer. Homogenization buffer: 50 ml Milli Q water+50 nM NaCl+0.2% Diethylamin (DEA)+1 tablet of Complete Protease inhibitor cocktail+1 nM 4-(2-aminoethyl) benzenesulfonyl fluoride hydrochloride irreversible serine protease inhibitor (AEBSF).
After homogenization 450 μL aliquots of the samples are collected into a 1.5 ml Eppendorf tube and placed on wet ice, 0.5% NP-40 (50 ul) was added to all samples and then they were incubated on ice for 30 min. After which all samples were sonicated using an Ultrasonic homogenizer with 20 kHz homogeneous sound (SONOPLUS HD2070, Bandelin Electronic) 10 pulse set at 12-13% power to extract all the Aβ species. The samples were then centrifuged (Ole Dich 157 MPRF Micro centrifuge) at 20000G for 20 minutes at 4° C. After centrifugation 285 μL of the supernatant was pipetted into 600 μL microtubes tubes and neutralized with 15 μL of 1M Tris-HCL buffer.
WAKO 294-62501 Human/Rat Abeta amyloid (40) kit was used for all ELISA analyses. 30 μL plasma samples or 30 μL of the cortex supernatants generated as described above were placed in 600 μL microtubes tubes on wet ice. To this 30 μL of 8M Urea (AppliChem A1049, 9025) are added to generate a 2-fold dilution. Both plasma and cortex supernatants are incubated on ice for 30 min. Standard rows were prepared from the standard peptide stock provided in the kit and standard diluent containing 1.6M Urea (200 μL 8M Urea+800 μL of standard diluent) and 0.8M Urea (400 μL 8M Urea+3600 μL Standard diluent). A serial 2-fold dilution of A340 from […] to 0 μmol/L was prepared for the assay.
After incubation with urea, all samples were further diluted by addition of 5 times standard diluent from the Kit. This was done by adding 240 μL Standard Diluent to 60 μL sample/urea mixture, which was then mixed well. 100 μL of each diluted sample was pipetted into designated wells of the ELISA plate in duplicates. The plate was then covered and incubated overnight at 4° C. The following day, the ELISA kit was brought to room temperature before use. The incubated plate was washed 5 times with the 20× washing solution diluted in Milli Q water. 100 μL HRP-conjugate was applied to each well, and the plate was covered and incubates at 4° C. for 1 hr. The wash was repeated again for 5 times. […]

BACE1 = BACE1 (Homo sapiens (Human), UniProt P56817); assay: BACE1 efficacy assay (FRET-based, commercial BACE1 kit); format: biochemical; conditions: 10 μM test compound
Protocol: The efficacy assay was performed as a FRET-based assay using a commercially available BACE1 kit (Life Technologies, P2985). 2 μl test compound at 10 μM (final concentration) and 15 μl BACE1 enzyme from the kit (final concentration 3 nM) were preincubated for 15 minutes at room temperature before addition of 15 μl of substrate from the kit (250 nM final concentration) and incubated for additional 90 minutes at room temperature. The assay plate was subsequently read in a Pherastar (Ex540/Em590). The enzyme activity observed in presence of test compound were normalized to the enzyme activity observed in presence of buffer and 10 μM (final concentration) of the high affinity BACE1 reference inhibitor (S)-6-[3-Chloro-5-(5-prop-1-ynyl-pyridin-3-yl)-thiophen-2-yl]-2-imino-3,6-dimethyl-tetra-hydropyrimidin-4-one, respectively. The efficacy of the test compounds was evaluated at 10 μM (final concentration) and defined as the percent inhibition of the enzyme activity using the equation % inhibition=100%−normalized enzyme activity in percent.

Sequence of BACE1 (P56817 46-501): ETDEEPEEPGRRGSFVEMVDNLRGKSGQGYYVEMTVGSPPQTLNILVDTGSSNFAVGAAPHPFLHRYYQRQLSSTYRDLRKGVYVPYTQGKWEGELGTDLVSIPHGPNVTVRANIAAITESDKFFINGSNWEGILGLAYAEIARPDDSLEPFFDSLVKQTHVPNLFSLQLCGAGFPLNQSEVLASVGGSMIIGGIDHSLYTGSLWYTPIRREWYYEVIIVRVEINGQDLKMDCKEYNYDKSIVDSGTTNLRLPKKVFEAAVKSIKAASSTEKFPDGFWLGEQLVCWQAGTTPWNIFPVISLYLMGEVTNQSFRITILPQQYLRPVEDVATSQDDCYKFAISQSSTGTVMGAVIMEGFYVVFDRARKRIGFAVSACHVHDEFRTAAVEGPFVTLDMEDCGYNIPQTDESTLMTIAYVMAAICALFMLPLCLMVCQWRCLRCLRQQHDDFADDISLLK

## COc1ccc(C(=O)Nc2ccc(F)c([C@@]3(C)N=C(N)[C@@](C)(F)C[C@@H]3F)c2)nc1 [Compound 3, N-(3-((2R,3S,5S)-6-amino-3,5-difluoro-2,5-dimethyl-2,3,4,5-tetrahydropyridin-2-yl)-4-fluorophenyl)-5-methoxypicolinamide]
Aβ40; Brain Rat, 10 mg/kg p.o.
  Aβ40 reduction: 35%
Aβ40; Brain Rat, 30 mg/kg p.o.
  Aβ40 reduction: 61%
Aβ40; Plasma Rat, 10 mg/kg p.o.
  Aβ40 reduction: 24%
Aβ40; Plasma Rat, 30 mg/kg p.o.
  Aβ40 reduction: 53%
BACE1
  inhibition at 10 µM: 102%

## [2H]C([2H])([2H])Oc1ccc(C(=O)Nc2ccc(F)c([C@@]3(C)N=C(N)[C@@](C)(F)C[C@@H]3F)c2)nc1 [Compound 19, N-(3-((2R,3S,5S)-6-amino-3,5-difluoro-2,5-dimethyl-2,3,4,5-tetrahydropyridin-2-yl)-4-fluorophenyl)-5-(methoxy-d3)picolinamide]
Aβ40; Brain Rat, 10 mg/kg p.o.
  Aβ40 reduction: 56%
Aβ40; Brain Rat, 30 mg/kg p.o.
  Aβ40 reduction: 66%
Aβ40; Plasma Rat, 10 mg/kg p.o.
  Aβ40 reduction: 49%
Aβ40; Plasma Rat, 30 mg/kg p.o.
  Aβ40 reduction: 53%
BACE1
  inhibition at 10 µM: 106%

## [2H]C([2H])([2H])Oc1cnc(C(=O)Nc2ccc(F)c([C@@]3(C)N=C(N)[C@@](C)(F)C[C@@H]3F)c2)cn1 [Compound 20, N-(3-((2R,3S,5S)-6-amino-3,5-difluoro-2,5-dimethyl-2,3,4,5-tetrahydropyridin-2-yl)-4-fluorophenyl)-5-(methoxy-d3)pyrazine-2-carboxamide]
Aβ40; Brain Rat, 3 mg/kg p.o.
  Aβ40 reduction: 52%
Aβ40; Plasma Rat, 3 mg/kg p.o.
  Aβ40 reduction: 64%
BACE1
  inhibition at 10 µM: 106%
